Laboratory results from US8614223B2, “Pyrimidine hydroxy amide compounds as protein deacetylase inhibitors and methods of use thereof” (Acetylon Pharmaceuticals, Inc., priority 2010, dated 2013).

Key:
HDAC1 = HDAC1 (Homo sapiens (Human), UniProt Q13547); experiment: HDAC enzyme assay, HDAC1; conditions: for HDAC1 fold over HDAC6 IC50 (selectivity for HDAC6): ratio HDAC1/HDAC6; for IC50: read-out: HDAC1 IC50
HDAC6 = HDAC6 (Homo sapiens (Human), UniProt Q9UBN7); conditions: read-out: HDAC6 IC50
HDAC2 = HDAC2 (Homo sapiens (Human), UniProt Q92769); experiment: HDAC enzyme assay, HDAC2; conditions: for HDAC2 fold over HDAC6 IC50 (selectivity for HDAC6): ratio HDAC2/HDAC6; for IC50: read-out: HDAC2 IC50
HDAC2, sequence (Q92769 whole entry): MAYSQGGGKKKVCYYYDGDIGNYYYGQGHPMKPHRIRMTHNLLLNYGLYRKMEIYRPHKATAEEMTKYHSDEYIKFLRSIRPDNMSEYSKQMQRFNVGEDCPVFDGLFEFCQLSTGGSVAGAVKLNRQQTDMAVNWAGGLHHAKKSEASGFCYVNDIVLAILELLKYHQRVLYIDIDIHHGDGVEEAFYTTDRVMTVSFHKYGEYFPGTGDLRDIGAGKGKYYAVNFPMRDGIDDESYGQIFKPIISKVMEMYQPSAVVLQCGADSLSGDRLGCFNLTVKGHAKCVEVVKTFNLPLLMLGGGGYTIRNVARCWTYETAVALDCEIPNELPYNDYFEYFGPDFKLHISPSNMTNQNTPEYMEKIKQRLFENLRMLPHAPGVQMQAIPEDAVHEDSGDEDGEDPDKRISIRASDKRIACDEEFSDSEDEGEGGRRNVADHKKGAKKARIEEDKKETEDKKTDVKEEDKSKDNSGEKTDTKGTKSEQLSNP

HDAC3 = HDAC3 (Homo sapiens (Human), UniProt O15379); experiment: HDAC enzyme assay, HDAC3; conditions: for HDAC3 fold over HDAC6 IC50 (selectivity for HDAC6): ratio HDAC3/HDAC6; for IC50: read-out: HDAC3 IC50
HDAC3, sequence (O15379 whole entry): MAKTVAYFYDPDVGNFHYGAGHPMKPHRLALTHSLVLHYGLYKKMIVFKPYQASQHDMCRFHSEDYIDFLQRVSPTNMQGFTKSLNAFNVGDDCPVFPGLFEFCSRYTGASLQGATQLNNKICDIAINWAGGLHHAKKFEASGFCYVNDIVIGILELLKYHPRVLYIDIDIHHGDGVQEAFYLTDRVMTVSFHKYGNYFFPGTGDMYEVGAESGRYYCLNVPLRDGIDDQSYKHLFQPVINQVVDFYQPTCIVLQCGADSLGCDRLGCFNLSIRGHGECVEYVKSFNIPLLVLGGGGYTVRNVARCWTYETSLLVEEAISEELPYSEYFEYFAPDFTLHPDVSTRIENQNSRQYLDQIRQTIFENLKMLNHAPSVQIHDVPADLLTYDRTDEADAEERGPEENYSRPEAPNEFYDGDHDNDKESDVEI
HDAC3, sequence (Q9Y618 395-489 partner): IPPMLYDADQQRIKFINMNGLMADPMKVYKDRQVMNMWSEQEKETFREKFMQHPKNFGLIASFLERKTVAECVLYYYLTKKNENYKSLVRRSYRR

HDAC1, sequence (Q13547 whole entry): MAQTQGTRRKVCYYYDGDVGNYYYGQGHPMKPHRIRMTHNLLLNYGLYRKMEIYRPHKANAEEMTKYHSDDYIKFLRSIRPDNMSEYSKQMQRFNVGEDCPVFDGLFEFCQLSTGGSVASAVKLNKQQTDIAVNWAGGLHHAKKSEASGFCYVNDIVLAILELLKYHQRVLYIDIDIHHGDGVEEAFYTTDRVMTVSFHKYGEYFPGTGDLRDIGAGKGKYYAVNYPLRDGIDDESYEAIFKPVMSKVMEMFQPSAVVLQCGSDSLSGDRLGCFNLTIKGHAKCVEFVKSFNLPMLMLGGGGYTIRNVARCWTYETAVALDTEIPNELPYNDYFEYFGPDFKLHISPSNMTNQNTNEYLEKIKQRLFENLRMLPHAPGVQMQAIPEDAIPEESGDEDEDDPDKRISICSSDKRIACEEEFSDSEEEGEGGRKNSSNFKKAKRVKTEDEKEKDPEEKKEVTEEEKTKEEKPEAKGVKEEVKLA
HDAC6, sequence (Q9UBN7 whole entry): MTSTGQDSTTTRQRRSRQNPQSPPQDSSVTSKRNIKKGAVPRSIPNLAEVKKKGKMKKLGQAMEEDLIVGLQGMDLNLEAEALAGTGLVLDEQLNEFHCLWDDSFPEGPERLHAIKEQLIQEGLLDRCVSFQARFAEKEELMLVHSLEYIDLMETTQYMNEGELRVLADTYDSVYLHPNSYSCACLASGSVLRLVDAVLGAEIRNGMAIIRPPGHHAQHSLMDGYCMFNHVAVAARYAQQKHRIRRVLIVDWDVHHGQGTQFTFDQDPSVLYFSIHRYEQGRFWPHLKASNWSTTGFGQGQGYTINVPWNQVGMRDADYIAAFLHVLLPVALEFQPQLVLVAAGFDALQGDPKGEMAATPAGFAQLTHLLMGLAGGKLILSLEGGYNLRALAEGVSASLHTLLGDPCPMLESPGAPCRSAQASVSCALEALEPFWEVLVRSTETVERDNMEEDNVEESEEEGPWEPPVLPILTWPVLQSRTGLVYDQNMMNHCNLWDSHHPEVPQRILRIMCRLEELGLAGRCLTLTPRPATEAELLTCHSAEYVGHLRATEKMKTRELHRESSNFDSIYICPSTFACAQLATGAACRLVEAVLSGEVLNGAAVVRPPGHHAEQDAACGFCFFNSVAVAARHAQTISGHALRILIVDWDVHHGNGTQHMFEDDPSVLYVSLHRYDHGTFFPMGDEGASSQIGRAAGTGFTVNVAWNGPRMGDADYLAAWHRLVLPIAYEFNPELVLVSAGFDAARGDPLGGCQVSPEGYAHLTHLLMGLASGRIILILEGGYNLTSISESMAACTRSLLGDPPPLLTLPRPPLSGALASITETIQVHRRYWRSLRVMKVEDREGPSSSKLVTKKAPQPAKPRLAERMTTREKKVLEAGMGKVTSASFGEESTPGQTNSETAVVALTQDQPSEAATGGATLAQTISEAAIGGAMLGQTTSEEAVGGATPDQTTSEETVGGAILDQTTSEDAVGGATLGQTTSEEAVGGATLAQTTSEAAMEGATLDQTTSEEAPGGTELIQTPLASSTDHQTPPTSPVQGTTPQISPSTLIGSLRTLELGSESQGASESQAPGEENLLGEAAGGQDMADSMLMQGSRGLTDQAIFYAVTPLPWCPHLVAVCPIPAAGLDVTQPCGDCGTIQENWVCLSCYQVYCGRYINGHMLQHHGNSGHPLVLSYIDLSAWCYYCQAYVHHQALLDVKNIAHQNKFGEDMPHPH

| Structure (SMILES) | HDAC1 fold over HDAC6 IC50 (selectivity for HDAC6) (HDAC1) | IC50 (HDAC1) | IC50 (HDAC6) | HDAC2 fold over HDAC6 IC50 (selectivity for HDAC6) (HDAC2) | IC50 (HDAC2) | HDAC3 fold over HDAC6 IC50 (selectivity for HDAC6) (HDAC3) | IC50 (HDAC3) |
| --- | --- | --- | --- | --- | --- | --- | --- |
| COc1ccc(Nc2ncc(C(=O)NO)cn2)cc1 [Compound 5] | (16.3x) | 247 nM | 15 nM | (26x) | 395 nM | (27.8x) | 421 nM |
| O=C(NO)c1cnc(Nc2cccc(C(F)(F)F)c2)nc1 [Compound 22] | (83.1x) | 222 nM | 3 nM | (166.7x) | 446 nM | (117x) | 313 nM |
| O=C(NO)c1cnc(NC2(c3ccccc3Cl)CC2)nc1 [Compound 90] | (19.9x) | 27 nM | 1 nM | (26.2x) | 36 nM | (30.2x) | 41 nM |
| O=C(NO)c1cnc(NC2(c3cccc(F)c3)CCCCC2)nc1 [Compound 101] | (283.5x) | 2120 nM | 7 nM | (343.2x) | 2570 nM | (1498.8x) | 11200 nM |
| O=C(NO)c1cnc(NC2(c3cc4ccccc4s3)CC2)nc1 [Compound 102] | (7.4x) | 13 nM | 2 nM | (11.3x) | 21 nM | (18x) | 33 nM |
| O=C(NO)c1cnc(Nc2cccc(N3CCOCC3)c2)nc1 [Compound 29] | (60.9x) | 464 nM | 8 nM | (106x) | 808 nM | (68.2x) | 520 nM |
| CC(C)(Nc1ncc(C(=O)NO)cn1)c1ccc(F)cc1 [Compound 68] | (254.8x) | 761 nM | 3 nM | (362.4x) | 1080 nM | (495.3x) | 1480 nM |
| O=C(NO)c1cnc(Nc2cc(Cl)cc(C(F)(F)F)c2)nc1 [Compound 25] | (50.9x) | 516 nM | 10 nM | (92.6x) | 938 nM | (81.9x) | 830 nM |
| CC(C)(Nc1ncc(C(=O)NO)cn1)c1ccc(C(F)(F)F)cc1 [Compound 74] | (147.5x) | 889 nM | 6 nM | (168.4x) | 1020 nM | (394.2x) | 2380 nM |
| O=C(NO)c1cnc(NC2(c3cccc(F)c3F)CC2)nc1 [Compound 143] | (3.4x) | 12 nM | 4 nM | (5x) | 17 nM | (8.4x) | 29 nM |
| O=C(NO)c1cnc(NCc2ccccc2)nc1 [Compound 35] | (42.3x) | 77 nM | 2 nM | (76.2x) | 140 nM | (70x) | 128 nM |
| COc1ccccc1C1(Nc2ncc(C(=O)NO)cn2)CC1 [Compound 133] | (188x) | 594 nM | 3 nM | (152.9x) | 483 nM | (229.8x) | 727 nM |
| O=C(NO)c1cnc(NCc2ccccc2-c2ccccc2)nc1 [Compound 55] | (60.2x) | 460 nM | 8 nM | (76.8x) | 587 nM | (82.6x) | 631 nM |
| CC(Nc1ncc(C(=O)NO)cn1)(c1ccc(F)cc1)c1ccc(F)cc1 [Compound 96] | (271.8x) | 2340 nM | 9 nM | (286.2x) | 2460 nM | (662.8x) | 5710 nM |
| COc1cc(Nc2ncc(C(=O)NO)cn2)cc(OC)c1 [Compound 23] | (60.4x) | 155 nM | 3 nM | (134x) | 343 nM | (100.2x) | 257 nM |
| O=C(NO)c1cnc(NC2(c3cccc(F)c3)CCOCC2)nc1 [Compound 149] | (80.1x) | 339 nM | 4 nM | (78x) | 330 nM | (312.9x) | 1320 nM |
| CC(C)(Nc1ncc(C(=O)NO)cn1)c1ccc(F)cc1F [Compound 70] | (217.2x) | 645 nM | 3 nM | (327.2x) | 972 nM | (441.9x) | 1310 nM |
| O=C(NO)c1cnc(NC2(c3ccc(F)c(F)c3)CC2)nc1 [Compound 140] | (8x) | 55 nM | 7 nM | (9x) | 62 nM | (18.5x) | 128 nM |
| CC(Nc1ncc(C(=O)NO)cn1)(c1ccccc1)c1ccccc1 [Compound 79] | (221.6x) | 1270 nM | 6 nM | (319.8x) | 1830 nM | (817.2x) | 4680 nM |
| O=C(NO)c1cnc(NCc2ccc(-c3ccccc3)cc2)nc1 [Compound 107] | (2.7x) | 60 nM | 2 nM | (3.7x) | 9 nM | (8x) | 19 nM |
| O=C(NO)c1cnc(NC2(c3ccc(F)cc3)CC2)nc1 [Compound 81] | (18.3x) | 47 nM | 3 nM | (30.2x) | 78 nM | (46.4x) | 120 nM |
| O=C(NO)c1cnc(Nc2c(Cl)cccc2Cl)nc1 [Compound 20] | (12.3x | 10600 nM | 864 nM | (20.1x) | 17300 nM | (18.9x) | 16300 nM |
| O=C(NO)c1cnc(Nc2cccc(Cl)c2)nc1 [Compound 17] | (33.5x) | 182 nM | 5 nM | (29.6x) | 161 nM | (36.5x) | 198 nM |
